Assay results published in patent US9617170B2, “Water treatment” (Kemira Oyj, priority 2012, dated 2017).
Where “and” joins values, the source holds several entries; their conditions need not be identical. Identical values can stand only once.

What was measured:
MS2 [1] = experiment: Disinfection of MS2-spiked wastewater effluent with PFA, UV and PFA+UV (plaque count); set-up: species or system RNA coliphages (MS2)
Protocol: Freshly prepared DEX-135® was added to wastewater effluent (500 ml) that was spiked with RNA coliphages (MS2) to contain 38534 PFU/ml MS2 and mixed continuously with a magnetic stirrer.
UV disinfection using collimator device: The test was done with 50 ml of wastewater effluent The waters were taken in to the cylinders and that was spiked with RNA coliphages (MS2) to contain 38534 PFU/ml MS2 and mixed. 10 ml of this water was taken in to the Petri dishes (diameter 6 cm) and exposed to UV using collimated beam (intensity I0 on the surface of water […]) with continue mixing with magnet stirrer. […]
Determination of microorganisms: The microbiological analyses were started within a few minutes after disinfection segment of the experiment. MS2 coliphages were determined on phage TYG-agar by basing on old double-agar-layer-method (Adams, 1959), with Escherichia coli ATCC 15597 and 13706, respectively as host bacteria and overnight incubation at 37° C. After incubation, virus plaques were counted and results calculated as PFU/ml (PFU=Plaque Forming Unit) and reduction percentage were also determined. […]
The synergistic index was calculated by the method presented by F. C. […] Here, the synergistic index was calculated using the following formula: Synergistic index SI=Qa/QA+Qb/QB.
Synergistic index was calculated for 1 log reduction.

Enterococci = experiment: Disinfection of spiked wastewater effluent with PFA, UV and PFA+UV: Enterococci count; set-up: species or system Enterococcus faecalis; conditions: for PFA in combination with UV (Qa): UV 15 mWs/cm^2; for PFA in combination with UV (Qa) / PFA alone (QA): interpolated
Protocol: (§1) Since the wastewater effluent might contain less than 100 cfu/ml (10^4 cfu/100 ml) of E. coli and Enterococci these microorganisms were spiked to wastewater so that the numbers of these microorganisms would be at the level of 10^4-10^5 cfu/ml allowing to study better reduction. E. coli ATTC 15597 and Enterococcus faecalis ATCC 29212 were produced in tryptone yeast extract broth as overnight shaker cultures at 37° C. and kept at 4° C. during the experiment. The numbers of E. coli and Enterococci (containing thus both the natural and spiked ones) were enumerated from effluent and effluent after disinfections by using Chromocult agar (Merck) and confirmed by indole production for E. coli and Slanetz-Bartley agar (Labema) for Enterococci incubated at 37° C. for 1 and 2 days, respectively.
(§2) The enumerations of E. coli and Enterococci were done as for fresh wastewater keeping the mixture at 4° C. for less than 5 hours before starting the analysis.
(§3) Only UV-irradiation: The spiked wastewater effluent was mixed and treated in a collimator device (UV intensity of 0.22 mW/cm^2 on surface of the solution) to treat UV-irradiations using UV 15 mWs/cm^2 alone, UV 25 mWs/cm^2 alone and UV 50 mWs/cm^2 alone. The enumerations of E. coli and Enterococci were determined as previously.
(§4) E. coli and Enterococci were analyzed by the spread-plate-technique. E. coli were cultivated on Chromocult agar (Merck, KGaA, Germany) and incubated at 37° C. for 21+3 h (preferring 2 days) and Enterococci on Slanez & Bartley agar (Lab M, IDG plc, Bury, Lancashire, UK) and incubated at 37° C. for 48+3 h. E. coli were confirmed by oxidase. Bacterial numbers were calculated as CFU/ml (CFU=Colony Forming Unit) and reductions were also determined. These bacterial determination methods are describes in ISO-9308-1 (E. coli) and SFS-EN ISO 7899-2 (Enterococci).
(§5) The graphs of Log reduction vs. dose were made and the values below were interpolated from the linear function of the data points.

E. coli = experiment: Disinfection of spiked wastewater effluent with PFA, UV and PFA+UV: E. coli count; set-up: species or system Escherichia coli; conditions: for PFA in combination with UV (Qa): UV 15 mWs/cm^2; for PFA in combination with UV (Qa) / PFA alone (QA): interpolated
Protocol: as §1, §2, §3, §4, §5

[2] = Decomposition of 8 spiked micropollutants in secondary waste water by PFA and UV (batch reactor); conditions: total reaction time 15 min
Protocol: The total reaction time was always kept in 15 min and the treatment temperature was between 10-15° C. The concentrations of each micropollutant were analyzed before and after treatment, and the difference was used to calculate the conversion of each compound. Further, a mean value of the conversions (%) of those 8 compounds was calculated to describe the overall efficiency of the treatment.

MS2 [3] = conditions: PAA 7-15 mg/l; cited from earlier work
[4] = PFA 0.25 mg/l alone, 10 minutes contact

With `O=COO` [PFA, performic acid] as the compound, how does the “PFA dose for 1 log reduction of MS2” value (MS2 [1]; PFA alone, effluent wastewater, 90% (1 log) removal) read?
The value was 3.5 mg/l.

And the “synergy index (SI)” value (MS2 [1]; UV + PFA, 1 log reduction of MS2)?
The value was 1.

What about the “PFA in combination with UV (Qa)” value (Enterococci; Log reduction 2.5) of the same compound?
Its value is 0.03 mg/L.

And the “PFA alone (QA)” value (Enterococci; Log reduction 2.5)?
Its value is 0.47 mg/L.

And the “PFA in combination with UV (Qa)” value (Enterococci; Log reduction 3)?
Its value is 0.19 mg/L.

And the “PFA alone (QA)” value (Enterococci; Log reduction 3)?
The value was 0.56 mg/L.

And the “PFA in combination with UV (Qa)” value (Enterococci; Log reduction 3.5)?
The value was 0.35 mg/L.

And the “PFA alone (QA)” value (Enterococci; Log reduction 3.5)?
Its value is 0.66 mg/L.

What about the “PFA in combination with UV (Qa)” value (Enterococci; Log reduction 4) of the same compound?
Its value is 0.52 mg/L.

And the “PFA alone (QA)” value (Enterococci; Log reduction 4)?
The value was 0.75 mg/L.

And the Log reduction (Enterococci; PFA 0.25 mg/l + UV 15 mWs/cm^2)?
The Log reduction was 4.53.

What about the Log reduction (Enterococci; [4]) of the same compound?
Its Log reduction is 3.08.

What about the SI (E. coli; Log reduction 1.5, PFA 0.06 mg/l + UV 15 mWs/cm^2) of the same compound?
Its SI is 0.88.

And the “PFA in combination with UV (Qa)” value (E. coli; Log reduction 1.5)?
Its value is 0.06 mg/L.

And the “PFA alone (QA)” value (E. coli; Log reduction 1.5)?
Its value is 0.33 mg/L.

What about the SI (E. coli; Log reduction 2, PFA 0.22 mg/l + UV 15 mWs/cm^2) of the same compound?
The SI was 1 and 1.02.

What about the “PFA in combination with UV (Qa)” value (E. coli; Log reduction 2) of the same compound?
Its value is 0.22 mg/L.

What about the “PFA alone (QA)” value (E. coli; Log reduction 2) of the same compound?
Its value is 0.44 mg/L.

What about the Log reduction (E. coli; PFA 0.25 mg/l + UV 25 mWs/cm^2) of the same compound?
The Log reduction was 3.52.

What about the Log reduction (E. coli; [4]) of the same compound?
The Log reduction was 1.72.

What about the “average conversion (%) of 8 compounds” value ([2]; PFA 5 mg/l, UV 0 min) of the same compound?
The value was 1.66%.

What about the “average conversion (%) of 8 compounds” value ([2]; PFA 5 mg/l, UV 1 min) of the same compound?
Its value is 15.27%.

And the “average conversion (%) of 8 compounds” value ([2]; PFA 5 mg/l, UV 5 min)?
The value was 28.53%.

And the “average conversion (%) of 8 compounds” value ([2]; PFA 5 mg/l, UV 15 min)?
Its value is 47.86%.

And the “average conversion (%) of 8 compounds” value ([2]; PFA 12.5 mg/l, UV 0 min)?
Its value is 5.15%.

What about the “average conversion (%) of 8 compounds” value ([2]; PFA 12.5 mg/l, UV 1 min) of the same compound?
Its value is 19.25%.

And the “average conversion (%) of 8 compounds” value ([2]; PFA 12.5 mg/l, UV 5 min)?
The value was 36.25%.

What about the “average conversion (%) of 8 compounds” value ([2]; PFA 12.5 mg/l, UV 15 min) of the same compound?
Its value is 54.18%.

What about the “average conversion (%) of 8 compounds” value ([2]; PFA 25 mg/l, UV 0 min) of the same compound?
Its value is 8.98%.

And the “average conversion (%) of 8 compounds” value ([2]; PFA 25 mg/l, UV 1 min)?
The value was 16.64%.

And the “average conversion (%) of 8 compounds” value ([2]; PFA 25 mg/l, UV 5 min)?
Its value is 41.61%.

What about the “average conversion (%) of 8 compounds” value ([2]; PFA 25 mg/l, UV 15 min (88 mJ/cm^2)) of the same compound?
Its value is 66.78%.

For `CC(=O)OO` [PAA, peracetic acid], which “log reduction of MS2” value (MS2 [3]) is on record?
The value was 1-1.5.
